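All cell lines were grown in 96-well plates and treated with compound for 48 hours. GI50: concentration for 50% inhibition of growth. TGI: concentration producing complete growth inhibition.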

What all share (assay): DTP human tumour cell line panel, 48 h
Assay [1] deals with SN12C renal.
Assay [2] concerns HCT-116 colon.
The test system of assay [3] is COLO 205 colon.
The subject of assay [4] is HCC-2998 colon.
Assay [5] relates to HCT-15 colon.
Assay [6] concerns NCI-H460 lung.
Assay [7] has as its system 786-0 renal.
Assay [8] relates to U251 CNS.
Assay [9] has as its system SK-MEL-28 melanoma.
The subject of assay [10] is SF-268 CNS.

What is called GI50 is the concentration at which growth is held to half of that of the control. As usually defined, the TGI is the concentration giving total growth inhibition. For the compound `CO/N=C(/C)COc1ccc2c(c1)oc(=O)c1cc(OC)ccc12`, the GI50 in [1], in [2], in [3], in [4], in assay [5] and in assay [6] was more than 100 µM each time. The GI50 in assay [7], in assay [8], in assay [9] and in assay [10] was more than 100 µM each time. Also, the TGI in [1], in [2], in [3], in assay [4], in assay [5] and in [6] was more than 100 µM in each case. Also, the TGI in [7], in assay [8], in assay [9] and in assay [10] was more than 100 µM throughout.

With `COc1cc(/C=C2\CC3C4CCC5=CC(=O)CC[C@]5(C)C4CC[C@]3(C)C2=O)ccc1OCCN1CCCC1` (stereo not given in full), the GI50 in [1] was 3.28 µM; in [2], 1.41 µM; in assay [3], 2.04 µM; in assay [4], 1.85 µM; in [5] it was 2.76 µM; in assay [6], 3.57 µM. In addition, the GI50 in assay [7] was 1.22 µM; in [8], 2.86 µM; in assay [9], 2.7 µM; in assay [10], 3.41 µM. Also, the TGI is 9.18 µM in [1]; 3.79 µM in assay [2]; 4.91 µM in assay [3]; 3.89 µM in assay [4]; 10.7 µM in assay [5]; more than 37.5 µM in assay [6]. Besides, the TGI in [7] came out at 2.91 µM; in assay [8], 10.1 µM; in assay [9], 8.11 µM; in assay [10], 19.4 µM.

For `CCN1CCN(Cc2ccc(Nc3ncc(F)c(-c4cc(F)c5nc(C)n(C(C)C)c5c4)n3)nc2)CC1`, the GI50 is 5.55 µM in assay [1]; 0.336 µM in [2]; 0.218 µM in [3]; 5.35 µM in assay [4]; 0.47 µM in assay [5]; 0.959 µM in assay [6]. Further, the GI50 is 4.74 µM in [7], 0.317 µM in assay [8], 6.03 µM in assay [9] and 5.32 µM in assay [10]. Also, the TGI stood at 12.6 µM in [1]; 11.7 µM in assay [2]; 6.26 µM in [3]; 11.5 µM in assay [4]; 11.7 µM in assay [5]; 12.7 µM in assay [6]. The TGI in assay [7] turned out to be 13.2 µM; in assay [8], 11.6 µM; in assay [9], 12.9 µM; in [10], 13.9 µM.

In the case of `Cc1nc2ccc(-n3ncc(C(=O)c4cc5ccccc5[nH]4)c3N)cc2[nH]1`, the GI50 in [1] is 12.7 µM; in assay [2], 4.51 µM; in [3] it was 4.77 µM; in [4], 14.4 µM; in assay [5], 0.884 µM; in assay [6], 2.39 µM. The GI50 in assay [7] was 9.44 µM; in assay [8], 1.44 µM; in assay [9], 8.78 µM; in [10], 6.63 µM. In addition, the TGI is more than 100 µM in [1]; more than 100 µM in assay [2]; 29.1 µM in assay [3]; more than 100 µM in assay [4]; 36.6 µM in assay [5]; 40.6 µM in [6]. Further, the TGI in [7] is 69.4 µM; in assay [8], more than 100 µM; in assay [9] it was more than 100 µM; in assay [10] it was more than 100 µM.

For `CCN1CCN(Cc2ccc(NC(=O)Nc3nc(-c4cc(OC)c(OC)c(OC)c4)cs3)cc2C(F)(F)F)CC1`, the GI50 was 1.45 µM in assay [1]; 1.48 µM in assay [2]; 1.58 µM in assay [3]; 1.8 µM in assay [4]; 1.41 µM in [5]; 1.65 µM in assay [6]. In addition, the GI50 in assay [7] is 1.66 µM; in assay [8], 1.37 µM; in [9] it was 1.65 µM; in assay [10], 1.87 µM. Moreover, the TGI came out at 3.19 µM in [1]; 2.84 µM in assay [2]; 3.2 µM in assay [3]; 3.4 µM in assay [4]; 3.55 µM in assay [5]; 3.2 µM in [6]. In addition, the TGI in assay [7] came out at 3.15 µM; in [8] it was 2.81 µM; in [9] it was 3 µM; in assay [10] it was 5.76 µM.

With `CC1=C2CC[C@@]3(C)C(=CCC3O)C2(C)CCC1=O` (stereo not given in full), the TGI in [1], in assay [2], in assay [3], in [4], in assay [5] and in [6] was more than 100 µM each time. In addition, the concentration for total growth inhibition (TGI) in [7], in assay [8], in [9] and in [10] was more than 100 µM in each case.

On to `CCOc1cc(Cl)c(C(C)NC(=O)c2cccc(OC)c2)cc1OCC` (stereo not given), for which the GI50 is 28.9 µM in assay [1]; 4.48 µM in assay [2]; 7.17 µM in assay [3]; 28.8 µM in assay [4]; 4.06 µM in assay [5]; 4.79 µM in assay [6]. Moreover, the GI50 in [7] was 20.5 µM; in assay [8], 8.18 µM; in assay [9], 16.5 µM; in [10], 23.6 µM. Further, the TGI in assay [1] was more than 100 µM; in assay [2] it was more than 100 µM; in assay [3], 47.3 µM; in assay [4], more than 100 µM; in [5] it was more than 100 µM; in assay [6] it was more than 54.8 µM. The TGI in [7], in assay [8], in assay [9] and in assay [10] was more than 100 µM in each case.

With `Cc1ccc2ncnc(N(C)C3CCCCC3)c2c1`, the GI50 was 39.6 µM in assay [1]; 36.7 µM in assay [2]; 35.1 µM in assay [3]; 28.8 µM in [4]; 27 µM in assay [5]; 25.3 µM in assay [6]. Besides, the GI50 in assay [7] was 32.3 µM; in assay [8] it was 59.7 µM; in assay [9], 40 µM; in [10], 23.7 µM. The TGI in assay [1] was more than 100 µM; in assay [2], more than 100 µM; in assay [3] it was more than 100 µM; in [4], 70.2 µM; in [5], 88.7 µM; in assay [6], more than 100 µM. Besides, the TGI is more than 100 µM in assay [7], more than 100 µM in assay [8], more than 100 µM in assay [9] and 89.8 µM in assay [10].

For the origin of these results see PubChem BioAssay (NCI).
